Experimental data published in PubChem BioAssay (NCI).
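48-hour exposure; five concentrations; linearly interpolated endpoints. At the GI50, growth is halved. TGI is the concentration that stops growth completely.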

What was measured:
Experiment in all cases: NCI tumour cell line growth inhibition, 48 h
[1] = test system: PC-3 prostate
[2] = test system: NCI-H522 lung
[3] = test system: SF-295 CNS
[4] = test system: SK-OV-3 ovarian
[5] = test system: M14 melanoma
[6] = test system: KM12 colon
[7] = test system: SF-268 CNS
[8] = test system: OVCAR-4 ovarian
[9] = test system: NCI-H23 lung
[10] = test system: HCT-116 colon
[11] = test system: 786-0 renal
[12] = test system: HT29 colon
[13] = test system: BT-549 breast
[14] = test system: OVCAR-8 ovarian
[15] = test system: LOX IMVI melanoma
[16] = test system: SNB-19 CNS
[17] = test system: SK-MEL-28 melanoma
[18] = test system: SW-620 colon
[19] = test system: NCI/ADR-RES ovarian
[20] = test system: SF-539 CNS
[21] = test system: NCI-H460 lung
[22] = test system: SK-MEL-2 melanoma
[23] = test system: A498 renal
[24] = test system: SNB-75 CNS
[25] = test system: CAKI-1 renal
[26] = test system: TK-10 renal
[27] = test system: A549 NSCLC
[28] = test system: HCC-2998 colon
[29] = test system: OVCAR-5 ovarian
[30] = test system: OVCAR-3 ovarian
[31] = test system: ACHN renal
[32] = test system: U251 CNS
[33] = test system: NCI-H226 lung
[34] = test system: SN12C renal
[35] = test system: MDA-MB-231 breast
[36] = test system: UO-31 renal
[37] = test system: T-47D breast
[38] = test system: K-562 leukemia
[39] = test system: MALME-3M melanoma
[40] = test system: MCF7 breast
[41] = test system: HCT-15 colon
[42] = test system: CCRF-CEM leukemia
[43] = test system: DU-145 prostate
[44] = test system: UACC-257 melanoma
[45] = test system: HOP-92 NSCLC
[46] = test system: HOP-62 NSCLC
[47] = test system: RPMI-8226 leukemia
[48] = test system: COLO 205 colon
[49] = test system: HS 578T breast
[50] = test system: MOLT-4 leukemia
[51] = test system: HL-60(TB) leukemia
[52] = test system: SK-MEL-5 melanoma
[53] = test system: MDA-MB-435
[54] = test system: UACC-62 melanoma
[55] = test system: IGROV1 ovarian
[56] = test system: EKVX NSCLC
[57] = test system: RXF 393 renal

COc1ccc(C(=O)n2nc(/C=C/c3ccc(O)c(OC)c3)cc2/C=C/c2ccc(O)c(OC)c2)cc1
GI50 [1]: 496 nM
TGI [1]: 3.78 µM
GI50 [2]: 267 nM
TGI [2]: 0.785 µM
GI50 [3]: 1640 nM
TGI [3]: 6.28 µM
GI50 [4]: 465 nM
TGI [4]: 1800 nM
GI50 [5]: 328 nM
TGI [5]: 1320 nM
GI50 [6]: 387 nM
TGI [6]: 18.1 µM
GI50 [7]: 476 nM
TGI [7]: 8.42 µM
GI50 [8]: 695 nM
TGI [8]: 5.44 µM
GI50 [9]: 840 nM
TGI [9]: 4.69 µM
GI50 [10]: 362 nM
TGI [10]: 2.69 µM
GI50 [11]: 445 nM
TGI [11]: 1.84 µM
GI50 [12]: 482 nM
TGI [12]: 2.24 µM
GI50 [13]: 466 nM
TGI [13]: 2.32 µM
GI50 [14]: 860 nM
TGI [14]: 13.1 µM
GI50 [15]: 467 nM
TGI [15]: 3.15 µM
GI50 [16]: 1090 nM
TGI [16]: 18.8 µM
GI50 [17]: 602 nM
TGI [17]: 7.45 µM
GI50 [18]: 455 nM
TGI [18]: 11.9 µM
GI50 [19]: 492 nM
TGI [19]: 10.5 µM
GI50 [20]: 365 nM
TGI [20]: 2210 nM
GI50 [21]: 370 nM
TGI [21]: 13.3 µM
GI50 [22]: 360 nM
TGI [22]: 0.934 µM
GI50 [23]: 2250 nM
TGI [23]: 7.26 µM
GI50 [24]: 395 nM
TGI [24]: 1.64 µM
GI50 [25]: 452 nM
TGI [25]: 15.3 µM
GI50 [26]: 1910 nM
TGI [26]: 6.66 µM
GI50 [27]: 1370 nM
TGI [27]: 14 µM
GI50 [28]: 2160 nM
TGI [28]: 9.19 µM
GI50 [29]: 2610 nM
TGI [29]: > 100 µM
GI50 [30]: 449 nM
TGI [30]: 2280 nM
GI50 [31]: 388 nM
TGI [31]: 17.2 µM
GI50 [32]: 597 nM
TGI [32]: 10.9 µM
GI50 [33]: 2060 nM
TGI [33]: 8.52 µM
GI50 [34]: 635 nM
TGI [34]: 19.3 µM
GI50 [35]: 575 nM
TGI [35]: 22.6 µM
GI50 [36]: 393 nM
TGI [36]: 3.2 µM
GI50 [37]: 737 nM
TGI [37]: 3.95 µM
GI50 [38]: 404 nM
TGI [38]: > 100 µM
GI50 [39]: 556 nM
TGI [39]: 3590 nM
GI50 [40]: 303 nM
TGI [40]: 1570 nM
GI50 [41]: 338 nM
TGI [41]: 5.96 µM
GI50 [42]: 304 nM
TGI [42]: > 100 µM
GI50 [43]: 668 nM
TGI [43]: 4.56 µM
GI50 [44]: 2030 nM
TGI [44]: 12.1 µM
GI50 [45]: 609 nM
TGI [45]: 4.88 µM

COc1cc2c(/C=C3/C(=O)Nc4ccc(O)cc43)c(Cl)[nH]c2cc1C
TGI [1]: 22.2 µM
TGI [2]: 19.5 µM
TGI [3]: 13.5 µM
TGI [46]: 4.55 µM
TGI [4]: 2480 nM
TGI [47]: 1340 nM
TGI [5]: 2020 nM
TGI [6]: 5.35 µM
TGI [48]: 894 nM
TGI [7]: 26.4 µM
TGI [8]: 3.38 µM
TGI [9]: 3.78 µM
TGI [10]: 6.61 µM
TGI [11]: 16.7 µM
TGI [12]: 5.42 µM
TGI [13]: 3.84 µM
TGI [14]: 7.77 µM
TGI [15]: 11.9 µM
TGI [49]: 28.5 µM
TGI [16]: 22.3 µM
TGI [17]: 0.0526 µM
TGI [50]: 387 nM
TGI [18]: 20 µM
TGI [20]: 185 nM
TGI [21]: 19.2 µM
TGI [51]: 4.08 µM
TGI [22]: 29.2 µM
TGI [23]: 24.6 µM
TGI [24]: 20 µM
TGI [25]: 3.19 µM
TGI [26]: 26.1 µM
TGI [27]: 32.9 µM
TGI [52]: 3.29 µM
TGI [53]: 44.1 nM
TGI [29]: 30.8 µM
TGI [54]: 3.08 µM
TGI [31]: 1.64 µM
TGI [32]: 2.99 µM
TGI [33]: 3.77 µM
TGI [34]: 3.06 µM
TGI [35]: 4.25 µM
TGI [55]: 20.5 µM
TGI [36]: 21.1 µM
TGI [37]: 7.85 µM
TGI [38]: 16 µM
TGI [39]: 1380 nM
TGI [40]: > 100000 nM
TGI [56]: 26.8 µM
TGI [41]: 1.17 µM
TGI [43]: 7.55 µM
TGI [44]: 21.9 µM
TGI [57]: 30.5 µM
TGI [45]: 42.6 µM
